Consider 5 compounds from ChEMBL document CHEMBL1201862, “PubChem BioAssay data set” (2004).

Molecules are shown by their SMILES.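 Protocol summary: plate cells (96-well), add compound at 5 concentrations, incubate 48 h, interpolate endpoints linearly. GI50 is the concentration that inhibits growth by half.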 Calls of active or inactive are those of the source. Cut-off read from the data, not from the text of the source: active = GI50 up to about 1.1 µM and inactive = higher.

Some test systems named below: A498; SK-MEL-28; NCI-H522; NCI-H460; NCI/ADR-RES; HCT-15; IGROV-1; OVCAR-8; SR; SK-MEL-5; T47D; RPMI-8226; UO-31; HCC 2998; PC-3; NCI-H23; HOP-92; K562; HL-60.
What all share (test): growth of human tumour cells (NCI), 48 h

In the case of `Cn1c(N)c(/C=N/NC(=O)CC#N)c(=O)n(C)c1=O`, the GI50 in the test with A498 was > 100 µM (inactive); in the test with SK-MEL-28 it was > 100 µM (inactive); in the test on NCI-H522 it was > 100 µM (inactive); in the test on NCI-H460, > 100 µM (inactive); in the test with NCI/ADR-RES, > 100 µM (inactive); with HCT-15, more than 100 µM. For the same compound, the GI50 in the test on IGROV-1, with OVCAR-8, in the test on SR, in the test on SK-MEL-5, in the test with T47D and with RPMI-8226 was > 100 µM (inactive) throughout. For the same compound, the GI50 in the test on UO-31, in the test with HCC 2998 and in the test on PC-3 was > 100 µM (inactive) each time.

For `C/C(=N\Nc1ccc([N+](=O)[O-])cc1[N+](=O)[O-])c1ccc2ccccc2n1`, the GI50 is > 100 µM (inactive) in the test with SK-MEL-28; 13.7 µM (inactive) in the test with NCI-H522; > 100 µM (inactive) with NCI-H23; 33 µM (inactive) in the test with NCI-H460; 46 µM (inactive) in the test with NCI/ADR-RES; 60.3 µM in the test with HCT-15. The GI50 was 28.1 µM (inactive) with IGROV-1; 47.3 µM (inactive) with OVCAR-8; > 100 µM (inactive) in the test with HOP-92; 97.9 µM (inactive) in the test on SR; 47.1 µM (inactive) in the test on SK-MEL-5; > 100 µM (inactive) in the test with T47D. Further, the GI50 in the test with RPMI-8226 is > 100 µM (inactive); in the test with UO-31, 51.4 µM (inactive); with PC-3, > 100 µM (inactive); with K562, > 100 µM (inactive).

In the case of `Cc1cc(OCc2nnc3sc(NC(=O)c4ccccc4)nn23)ccc1Cl`, the GI50 was 27.2 µM (inactive) with A498; 67.5 µM (inactive) in the test on SK-MEL-28; 30.6 µM (inactive) with NCI-H522; 30.7 µM (inactive) in the test on NCI-H23; 39.1 µM (inactive) in the test on NCI-H460; 37 µM (inactive) in the test with NCI/ADR-RES. The GI50 with HCT-15 was 38.7 µM; in the test on IGROV-1 it was 25.4 µM (inactive); in the test with OVCAR-8 it was 20.7 µM (inactive); in the test on HOP-92, 17.4 µM (inactive); in the test on SK-MEL-5 it was 32.4 µM (inactive); in the test on T47D it was 44.4 µM (inactive). The GI50 in the test with RPMI-8226 is 26.7 µM (inactive); with UO-31, 19 µM (inactive); in the test with HL-60, 34.6 µM (inactive); in the test with HCC 2998, 26.7 µM (inactive); in the test on PC-3 it was 33.7 µM (inactive); with K562 it was 94.2 µM (inactive).

`CCC1C(c2cccc(OC)c2O)c2cc3c(cc2OC1N1CCCC1)OCO3` (centres undefined): the GI50 with SK-MEL-28 is 16.3 µM (inactive); in the test with NCI-H522 it was 10.7 µM (inactive); in the test with NCI-H23, 26.4 µM (inactive); in the test on NCI-H460, 20.2 µM (inactive); in the test on NCI/ADR-RES it was 15.7 µM (inactive); with HCT-15 it was 12.2 µM. Besides, the GI50 in the test with IGROV-1 was 14.9 µM (inactive); in the test on OVCAR-8 it was 20.6 µM (inactive); with SR, 14.9 µM (inactive); in the test with SK-MEL-5, 10.4 µM (inactive); in the test with T47D it was 16.2 µM (inactive); with RPMI-8226 it was 12.6 µM (inactive). Besides, the GI50 in the test on UO-31 was 14.1 µM (inactive); in the test on HCC 2998 it was 10 µM (inactive); with PC-3, 16.6 µM (inactive); in the test with K562 it was 11.8 µM (inactive).

In the case of `COC(=O)CNC(=O)c1cc(C)cc2c1Oc1c(cc(C)cc1C(=O)NCC(=O)OC)S2`, the GI50 with SK-MEL-28 is 47.8 µM (inactive); in the test on NCI-H522 it was 89.7 µM (inactive); in the test on NCI-H23, 58.7 µM (inactive); in the test with NCI/ADR-RES it was > 100 µM (inactive); with HCT-15, 53.1 µM; in the test on IGROV-1, > 100 µM (inactive). In addition, the GI50 with OVCAR-8 was > 100 µM (inactive); in the test on HOP-92, 22.3 µM (inactive); with SR, 31 µM (inactive); in the test on T47D it was > 100 µM (inactive); with RPMI-8226, 40 µM (inactive); with HCC 2998 it was 38.5 µM (inactive). Besides, the GI50 in the test with PC-3 and with K562 was > 100 µM (inactive) each time.
